Reference: patent US4308210A, “Nanaomycin B and therapeutic compositions containing same” (The Kitasato Institute, priority 1976, dated 1981)
≈ marks a conversion by molar mass, not a printed value. Read-outs that look alike come from different tables or passages of the source.

Experiments:
[1] = system: Bacillus subtillis PCI 219; assay: Antimicrobial spectrum, MIC, nutrient agar; assay type: cell-based; conditions: PCI219, 48 h, nutrient agar (pH 7.0, 2 days, 37° C.)
Pseudomonas aeruginosa = assay: Antimicrobial spectrum, MIC, nutrient agar; assay type: cell-based; conditions: 48 h, nutrient agar (pH 7.0, 2 days, 37° C.)
Trichophyton verrucosum = assay: Treatment of dermatomycosis of cattle caused by mass infection; assay type: in vivo; set-up: key: +++: complete removal of scales and recovered; ++: a little scales remained; +: removal of a part of scales; -: no removal of scale and no recovery
Method: When dermatomycosis of cattle caused by mass infection of Trichophyton verrucosum is treated with nanaomycin B, nanaomycin B is dissolved or suspended in a suitable carrier, for example, olive oil, and is coated on the affected part directly with or without removal of the scales. […] The results obtained by coating nanaomycin B once and by twice coatings (the second coating is carried out a week after the first coating) are shown in tables 2 and 3, respectively.

[2] = system: Trichophyton interdigitale; assay: Antifungal activity, agar dilution method; assay type: cell-based; conditions: Trichophyton interdigitale, 96 h, potato agar, pH 6.4, 27° C., 4 days, read-out: Minimal Inhibitory Con.
Method: (§1) Minimal inhibitory concentration is assayed by agar dilution method
(§2) (potato agar, pH 6.4, 27° C., 4 days)

Aspergillus fumigatus = assay: Antifungal activity, agar dilution method; assay type: cell-based; conditions: Aspergillus fumigatus, 96 h, potato agar, pH 6.4, 27° C., 4 days, read-out: Minimal Inhibitory Con.
Method: as §1, §2

Candida albicans = assay: Antifungal activity, agar dilution method; assay type: cell-based; conditions: Candida albicans, 96 h, potato agar, pH 6.4, 27° C., 4 days, read-out: Minimal Inhibitory Con.
Method: as §1, §2

Saccharomyces sake = assay: Antifungal activity, agar dilution method; assay type: cell-based; conditions: Saccharomyces, 96 h, potato agar, pH 6.4, 27° C., 4 days, read-out: Minimal Inhibitory Con.
Method: as §1, §2

Aspergillus niger = assay: Antifungal activity, agar dilution method; assay type: cell-based; conditions: Aspergillus niger, 96 h, potato agar, pH 6.4, 27° C., 4 days, read-out: Minimal Inhibitory Con.
Method: as §1, §2

Microsporum gypseum = assay: Antifungal activity, agar dilution method; assay type: cell-based; conditions: Nannizzia gypsea, 96 h, potato agar, pH 6.4, 27° C., 4 days, read-out: Minimal Inhibitory Con.
Method: as §1, §2

Trichophyton asteroides = assay: Antifungal activity, agar dilution method; assay type: cell-based; conditions: Trichophyton, 96 h, potato agar, pH 6.4, 27° C., 4 days, read-out: Minimal Inhibitory Con.
Method: as §1, §2

Trichophyton violaceum = assay: Antifungal activity, agar dilution method; assay type: cell-based; conditions: Trichophyton violaceum, 96 h, potato agar, pH 6.4, 27° C., 4 days, read-out: Minimal Inhibitory Con.
Method: as §1, §2

Trichophyton ferrugineum = assay: Antifungal activity, agar dilution method; assay type: cell-based; conditions: Microsporum ferrugineum, 96 h, potato agar, pH 6.4, 27° C., 4 days, read-out: Minimal Inhibitory Con.
Method: as §1, §2

Trichophyton schoenleini = assay: Antifungal activity, agar dilution method; assay type: cell-based; conditions: Trichophyton, 96 h, potato agar, pH 6.4, 27° C., 4 days, read-out: Minimal Inhibitory Con.
Method: as §1, §2

Trichophyton rubrum = assay: Antifungal activity, agar dilution method; assay type: cell-based; conditions: Trichophyton rubrum, 96 h, potato agar, pH 6.4, 27° C., 4 days, read-out: Minimal Inhibitory Con.
Method: as §1, §2

[3] = system: Mycoplasma gallisepticum S-6; assay: Antimicrobial spectrum, MIC, PPLO agar; assay type: cell-based; conditions: Mycoplasmoides gallisepticum, S6, 192 h
Method: (§3) H Hokken PPLO agar (pH 7.8, 8 days, 37° C.)
(§4) E Eiken PPLO agar (pH 7.8, 8 days, 37° C.)
(§5) MIC Minimal inhibitory concentration

[4] = system: Mycoplasma gallisepticum 333P (Spiramycin resistant); assay: Antimicrobial spectrum, MIC, PPLO agar; assay type: cell-based; conditions: for MIC: Mycoplasmoides gallisepticum, 192 h
Method: as §3, §4, §5

[5] = system: Acholeplasma laidlawii (A) PG8; assay: Antimicrobial spectrum, MIC, PPLO agar; assay type: cell-based
Method: as §3, §4, §5

[6] = system: Acholeplasma laidlawii (B) Bml; assay: Antimicrobial spectrum, MIC, PPLO agar; assay type: cell-based; conditions: 192 h
Method: as §3, §4, §5

[7] = system: Mycoplasma gallisepticum KP-13; assay: Antimicrobial spectrum, MIC, PPLO agar; assay type: cell-based; conditions: Mycoplasmoides gallisepticum, KP13, 192 h
Method: as §3, §4, §5

[8] = coating once, I direct coating on affected part, 0.1 mg/ml
[9] = coating once, I direct coating on affected part, 1 mg/ml
[10] = coating once, I direct coating on affected part, 10 mg/ml
[11] = coating once, II coating after removing the scales, 0.1 mg/ml
[12] = coating once, II coating after removing the scales, 1 mg/ml
[13] = coating once, II coating after removing the scales, 10 mg/ml
[14] = twice coatings (second a week after the first), I direct coating on affected part, 0.1 mg/ml
[15] = twice coatings (second a week after the first), I direct coating on affected part, 1 mg/ml
[16] = twice coatings (second a week after the first), I direct coating on affected part, 10 mg/ml
[17] = twice coatings (second a week after the first), II coating after removing the scales, 0.1 mg/ml
[18] = twice coatings (second a week after the first), II coating after removing the scales, 1 mg/ml
[19] = twice coatings (second a week after the first), II coating after removing the scales, 10 mg/ml
[20] = pH 7.8, Eiken PPLO agar (pH 7.8, 8 days, 37° C.)
[21] = pH 7.8, Hokken PPLO agar (pH 7.8, 8 days, 37° C.)

SMILES: CC1OC(CC(=O)O)CC2C(=O)c3cccc(O)c3C(=O)C12O (stereo not drawn) [Nanaomycin B]
- MIC [1]: 7.8 µg/mL (≈ 24.4 µM)
- MIC (Pseudomonas aeruginosa): > 500 µg/mL
- Result after 1 week (Trichophyton verrucosum; [8]): ++
- Result after 2 weeks (Trichophyton verrucosum; [8]): ++
- Result after 3 weeks (Trichophyton verrucosum; [8]): +++
- Result after 4 weeks (Trichophyton verrucosum; [8]): +++
- Result after 1 week (Trichophyton verrucosum; [9]): +++
- Result after 2 weeks (Trichophyton verrucosum; [9]): +++
- Result after 3 weeks (Trichophyton verrucosum; [9]): +++
- Result after 4 weeks (Trichophyton verrucosum; [9]): +++
- Result after 1 week (Trichophyton verrucosum; [10]): +++
- Result after 2 weeks (Trichophyton verrucosum; [10]): +++
- Result after 3 weeks (Trichophyton verrucosum; [10]): +++
- Result after 4 weeks (Trichophyton verrucosum; [10]): +++
- Result after 1 week (Trichophyton verrucosum; [11]): +++
- Result after 2 weeks (Trichophyton verrucosum; [11]): +++
- Result after 3 weeks (Trichophyton verrucosum; [11]): +++
- Result after 4 weeks (Trichophyton verrucosum; [11]): +++
- Result after 1 week (Trichophyton verrucosum; [12]): +++
- Result after 2 weeks (Trichophyton verrucosum; [12]): +++
- Result after 3 weeks (Trichophyton verrucosum; [12]): +++
- Result after 4 weeks (Trichophyton verrucosum; [12]): +++
- Result after 1 week (Trichophyton verrucosum; [13]): +++
- Result after 2 weeks (Trichophyton verrucosum; [13]): +++
- Result after 3 weeks (Trichophyton verrucosum; [13]): +++
- Result after 4 weeks (Trichophyton verrucosum; [13]): +++
- Result after 1 week (Trichophyton verrucosum; [14]): ++
- Result after 2 weeks (Trichophyton verrucosum; [14]): +++
- Result after 3 weeks (Trichophyton verrucosum; [14]): +++
- Result after 4 weeks (Trichophyton verrucosum; [14]): +++
- Result after 1 week (Trichophyton verrucosum; [15]): ++
- Result after 2 weeks (Trichophyton verrucosum; [15]): ++
- Result after 3 weeks (Trichophyton verrucosum; [15]): +++
- Result after 4 weeks (Trichophyton verrucosum; [15]): +++
- Result after 1 week (Trichophyton verrucosum; [16]): +++
- Result after 2 weeks (Trichophyton verrucosum; [16]): +++
- Result after 3 weeks (Trichophyton verrucosum; [16]): +++
- Result after 4 weeks (Trichophyton verrucosum; [16]): +++
- Result after 1 week (Trichophyton verrucosum; [17]): +++
- Result after 2 weeks (Trichophyton verrucosum; [17]): +++
- Result after 3 weeks (Trichophyton verrucosum; [17]): +++
- Result after 4 weeks (Trichophyton verrucosum; [17]): +++
- Result after 1 week (Trichophyton verrucosum; [18]): +++
- Result after 2 weeks (Trichophyton verrucosum; [18]): +++
- Result after 3 weeks (Trichophyton verrucosum; [18]): +++
- Result after 4 weeks (Trichophyton verrucosum; [18]): +++
- Result after 1 week (Trichophyton verrucosum; [19]): +++
- Result after 2 weeks (Trichophyton verrucosum; [19]): +++
- Result after 3 weeks (Trichophyton verrucosum; [19]): +++
- Result after 4 weeks (Trichophyton verrucosum; [19]): +++
- MIC [2]: 12.5 µg/mL (≈ 39 µM)
- MIC (Aspergillus fumigatus): 50 µg/mL (≈ 156 µM)
- MIC (Candida albicans): > 100 µg/mL
- MIC (Saccharomyces sake): > 100 µg/mL
- MIC (Aspergillus niger): > 100 µg/mL
- MIC (Microsporum gypseum): 12.5 µg/mL (≈ 39 µM)
- MIC (Trichophyton asteroides): 12.5 µg/mL (≈ 39 µM)
- MIC (Trichophyton violaceum): 6.3 µg/mL (≈ 19.7 µM)
- MIC (Trichophyton ferrugineum): 6.3 µg/mL (≈ 19.7 µM)
- MIC (Trichophyton schoenleini): 0.4 µg/mL (≈ 1.25 µM)
- MIC (Trichophyton rubrum): 6.3 µg/mL (≈ 19.7 µM)
- MIC [3, 20]: 0.1 µg/mL (≈ 0.312 µM)
- MIC [3, 21]: < 0.013 µg/mL
- MIC [4, 20]: 0.05 µg/mL (≈ 0.156 µM)
- MIC [4, 21]: 0.013 µg/mL (≈ 0.0406 µM)
- antimicrobial activity on spiramycin-resistant Mycoplasma gallisepticum ([4]; in words): high antimicrobial activity
- MIC ([5]; Acholeplasma laidlawii, 192 h, Hokken PPLO agar (pH 7.8, 8 days, 37° C.), read-out: MIC): > 25 µg/mL
- MIC ([5]; Eiken PPLO agar (pH 7.8, 8 days, 37° C.)): > 25 µg/mL
- MIC [6, 20]: > 25 µg/mL
- MIC [6, 21]: 25 µg/mL (≈ 78.1 µM)
- MIC [7, 21]: < 0.013 µg/mL
- MIC ([7]; Eiken PPLO agar (pH 7.8, 8 days, 37° C.), read-out: MIC): 0.1 µg/mL (≈ 0.312 µM)
